# From patent publication US20050209336A1, “EP2 receptor agonists” (priority 2003, published 2005)
# pEC50: −log10 of the molar value. Like-named read-outs stand apart in the source and are kept apart here.
# Key:
# human EP3 receptor = molecular target: T1, human EP3 receptor (Homo sapiens, UniProt P43115); assay: Radioligand ([3H]PGE2) competition displacement binding, human EP3 receptor membranes; conditions: [3H]PGE2 displacement, read-out: pKi EP3 (converted)
# T1 construct: expressed in transfected cells
# T1 sequence (P43115 1-390): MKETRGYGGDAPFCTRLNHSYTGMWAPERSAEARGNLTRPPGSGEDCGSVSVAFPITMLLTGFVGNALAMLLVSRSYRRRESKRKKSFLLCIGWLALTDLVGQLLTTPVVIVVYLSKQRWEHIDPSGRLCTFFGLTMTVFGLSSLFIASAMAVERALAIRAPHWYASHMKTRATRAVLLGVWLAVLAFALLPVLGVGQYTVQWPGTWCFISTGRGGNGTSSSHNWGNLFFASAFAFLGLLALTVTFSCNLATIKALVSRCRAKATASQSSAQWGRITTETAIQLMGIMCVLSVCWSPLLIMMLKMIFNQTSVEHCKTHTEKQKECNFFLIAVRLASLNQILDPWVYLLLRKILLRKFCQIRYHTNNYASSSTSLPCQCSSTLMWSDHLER
# Method: (§1) Membranes were prepared from cells stably transfected with human EP receptor cDNA. In brief, cells were cultured to confluency, scraped from culture flasks, and centrifuged (800 g, 8 minutes, 4° C.). Cells were twice washed in ice cold homogenisation buffer containing 10 mMTris-HCl, 1 mM EDTA.2Na, 250 mM sucrose, 1 mM PMSF, 0.3 mM indomethacin, pH 7.4, homogenised and re-centrifuged as before. The supernatant was stored on ice and pellets re-homogenised and re-spun. Supernatants were pooled and centrifuged at 40000 g, 10 minutes, 4° C. Resultant membrane pellets were stored at −80° C. until use.
# (§2) For assay, membranes expressing human EP4, EP3, EP2 or EP1 receptors were incubated in Millipore (MHVBN45) plates containing assay buffer, radiolabelled [^3H]PGE2 and 0.1 to 10 000 nM concentrations of compounds. Incubations were performed at suitable temperatures and for suitable times to allow equilibrium to be reached. Non-specific binding was determined in the presence of 10 uM PGE2. Bound and free radiolabel was separated by vacuum manifold filtration using appropriate wash buffers, and bound radiolabel was determined by scintillation counting. Constituents of each of the buffers are included in table 4 below.
# (§3) The affinity or pKi of each compound for each receptor was calculated from the concentration causing 50% radioligand displacement (IC50) using the Cheng-Prusoff equation: [formula]
# (§4) This approach follows that set out in Kenakin, T. P., Pharmacologic analysis of drug receptor interaction. Raven Press, New York, 2nd edition.
# [1] = system: TNFα production by LPS-stimulated monocytes; assay: Monocyte assay: LPS-induced TNFα secretion; format: cell-based; conditions: Homo sapiens, inhibition of TNFα production, LPS 100 ng/ml, 24 h, mean of three donors; for pEC50: read-out: Mean EC50; for EC50: log scale, read-out: Mean Log (EC50) (converted)
# Source text: Monocytes are peripheral mononuclear phagocytes that participate in inflammatory responses. TNFα production by monocytes plays an important role in inflammatory responses and can cause considerable tissue damage if the level remained unchecked. Inhibition of TNFα secretion by activated monocytes may provide an attractive therapy for the treatment of inflammatory conditions.
# A 96 well in vitro assay was established to determine the effects of test compounds on LPS-induced TNFα secretion by human peripheral blood monocytes. The level of TNFα in assay supernatants was quantified using a standard sandwich ELISA.
# Human peripheral blood mononuclear cells from healthy volunteers were isolated from whole blood by Ficoll-Hypaque density centrifugation and adherence to plastic. The non-adherent lymphocyte fraction was used to set up the lymphocyte assay and the adherent monocytes were then recovered by scraping and subsequently used in the monocyte assay.
# For the monocyte assay, the cells were plated onto 96-well plates and pre-treated for 1 hour at 37° C./5% CO2 with the test compound (Peak 1, mixture 1 acid; Peak 1, mixture 2 acid; AH-13205 racemate), followed by the addition of LPS (100 ng/ml) to initiate the reaction. The plate was incubated for 24 hours and supernatants were recovered for the measurement of TNFα production by ELISA.
# human EP4 receptor = molecular target: T2, human EP4 receptor (Homo sapiens, UniProt P35408); assay: Radioligand ([3H]PGE2) competition displacement binding, human EP4 receptor membranes; conditions: [3H]PGE2 displacement, read-out: pKi EP4 (converted)
# T2 construct: expressed in transfected cells
# Method: as §1, §2, §3, §4
# human EP2 receptor = molecular target: T3, human EP2 receptor (Homo sapiens, UniProt P43116); assay: Radioligand ([3H]PGE2) competition displacement binding, human EP2 receptor membranes; conditions: for Ki: human EP2 membranes, [3H]PGE2 displacement, Cheng-Prusoff, mean of 4 experiments, read-out: pKi EP2 (converted)
# T3 construct: expressed in transfected cells; host or cells: HEK cells (HEK-EP2)
# Method: as §1, §2, §3, §4
# [2] = system: human myometrial smooth muscle; assay: Human myometrial activity: inhibition of electrical field stimulation (EFS) induced contractions; format: cell-based; conditions: for maximum inhibitory effect: inhibition of EFS-induced contractions / pEC50: human myometrium strips; for effect on electrically-induced (EFS-evoked) contractions: human myometrium, 10^-6 to 10^-4 M (FIG. 6), 1x10^-7 to 1x10^-4 M; for pEC50: inhibition of EFS-evoked response
# Method: The following describes an in vitro functional assay, using human myometrial smooth muscle, to determine the affinity of the test compounds at the EP2 receptor in human tissues.
# Sections of human myometrium were prepared from samples of surgically removed uterus longitudinal myometrial muscle strips (2 mm wide by 10 mm long) were then cut and suspended between stainless steel hooks in organ chambers containing oxygenated (95% O2/5% CO2) Krebs solution at 37° C. The composition of the Krebs solution was as follows: NaCl (118.2 mM), KCl (4.69 mM), MgSO4.7H2O (1.18 mM), KH2PO4 (1.19 mM), glucose (11.1 mM), NaHCO3 (25.0 mM), CaCl2.6H2O (2.5 mM), indomethacin 3×10^−6M.
# Tissues were placed under a tension equivalent to 25 mN and left overnight at room temperature. The following day the tissues were maintained at 37° C., washed and placed under a tension of 15 mN then allowed to equilibrate for a period of at least 30 minutes. Responses were recorded using isometric transducers coupled to an Apple Macintosh computer via a MacLab interface. After 60 minutes, the muscle sections of the human myometrium were stimulated electrically (15 ms pulse width, for 10 s every 100 s at 15V and 0.5-40 Hz) using parallel platinum wire electrodes and a Multistim D330 pulse stimulator. Upon electrical stimulation, the strips of human myometrial smooth muscle responded with a rapid contraction. Once the response to electrical stimulation had stabilised (stimulated responses differed by no more than 10%), the strips were exposed to increasing concentrations of test compounds (1×10^−7 to 1×10^−4M, incubated for at least 15 minutes at each concentration). At the end of the experiment, application of sodium nitroprusside (SNP, a nitric oxide donor that causes smooth muscle relaxation) (1×10^−4M) was used to produce a standard relaxatory response. To determine the affinity of the compounds, the concentration of test compound required to produce half-maximal effects (EC50) was calculated, as was the maximum response (calculated as a percentage of the standard response produced with SNP).
# T3 sequence (P43116 whole entry): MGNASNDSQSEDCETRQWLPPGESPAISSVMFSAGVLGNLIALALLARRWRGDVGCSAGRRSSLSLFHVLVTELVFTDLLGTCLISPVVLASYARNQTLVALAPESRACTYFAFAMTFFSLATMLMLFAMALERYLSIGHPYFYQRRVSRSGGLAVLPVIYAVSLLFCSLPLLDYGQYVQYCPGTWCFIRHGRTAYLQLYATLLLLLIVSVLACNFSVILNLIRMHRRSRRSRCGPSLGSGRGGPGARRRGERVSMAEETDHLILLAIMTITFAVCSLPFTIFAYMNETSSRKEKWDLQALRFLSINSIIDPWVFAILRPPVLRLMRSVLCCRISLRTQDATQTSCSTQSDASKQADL
# T2 sequence (P35408 whole entry): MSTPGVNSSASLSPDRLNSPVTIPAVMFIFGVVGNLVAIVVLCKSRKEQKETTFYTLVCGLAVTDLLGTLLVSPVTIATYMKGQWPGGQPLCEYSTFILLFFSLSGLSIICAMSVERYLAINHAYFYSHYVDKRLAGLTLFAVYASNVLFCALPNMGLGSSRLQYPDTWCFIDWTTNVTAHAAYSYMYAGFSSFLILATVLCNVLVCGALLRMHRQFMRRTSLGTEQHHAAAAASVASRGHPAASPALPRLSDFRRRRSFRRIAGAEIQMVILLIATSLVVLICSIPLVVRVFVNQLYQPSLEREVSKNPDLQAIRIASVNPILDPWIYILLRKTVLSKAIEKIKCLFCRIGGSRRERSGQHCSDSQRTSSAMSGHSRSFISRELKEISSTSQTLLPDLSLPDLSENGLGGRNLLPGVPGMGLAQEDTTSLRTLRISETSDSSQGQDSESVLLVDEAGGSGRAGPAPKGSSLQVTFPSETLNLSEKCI
Ki (human EP3 receptor) [µM],pEC50 [1],EC50 [1] [µM],Ki (human EP4 receptor) [µM],Ki (human EP2 receptor) [µM],pEC50 [2],selectivity for EP2 over other EP receptors (from table 5) (human EP2 receptor; comparison among the stereoisomers),SMILES,maximum inhibitory effect: inhibition of EFS-induced contractions [2] [%],effect on electrically-induced (EFS-evoked) contractions [2],effect on electrically-induced (EFS-evoked) contractions ([2]; listed as AH-13205)
6.31,4.70,19.8,25.1,0.398,5.30,,"CCCCCC(O)c1ccc(C2CCC(=O)C2CCCCCCC(=O)O)cc1 (racemic) [AH13205, (±)-trans-2-[4-(1-hydroxyhexyl)phenyl]-5-oxo-cyclopentaneheptanoic acid, reference compound]",49±5,concentration-dependent inhibition,inhibit electrically-induced contractions
2,5.75,1.78,10,0.0794,5.90,,"CCCCC[C@H](O)c1ccc([C@H]2CCC(=O)[C@@H]2CCCCCCC(=O)O)cc1 (single isomer, unassigned) [Peak 1, Mixture 1 acid]",56±5,concentration-dependent inhibition,
15.8,5.17,6.73,7.94,0.126,5.30,most selective,"CCCCC[C@@H](O)c1ccc([C@H]2CCC(=O)[C@@H]2CCCCCCC(=O)O)cc1 (single isomer, unassigned) [Peak 1, Mixture 2 acid]",57±2,concentration-dependent inhibition,
